30 molecules from US20120095024A1, “TOLUIDINE SULFONAMIDES AND THEIR USE” (Elara Pharmaceuticals GmbH, priority 2008, published 2012) can be followed below.

This test relates to MCF7 cells. Kind of test: Cell proliferation assay (ATPlite), MCF-7. The format is cell-based, human. To be noted: Homo sapiens, inhibition of cell proliferation, 72 h. As for the experimental part:
MCF-7 human breast adenocarcinoma cells and HL-60 acute promyelocytic leukaemia cells were obtained from ATCC (LGC Promochem). HG-1 multiple myeloma cells were obtained from Dr. D. Hose (DKFZ Heidelberg). The CellSensor® HRE-bla HCT116 cell line (colorectal carcinoma) was obtained from Invitrogen.
Cells were grown under humidified 95% air, 5% CO2 at 37° C. in Dulbecco's modified Eagle's medium (DMEM: MCF-7) or RPMI 1640 medium (RPMI: HL-60, HG-1) supplemented with 10% fetal bovine serum (FBS), 100 U/ml penicillin and 100 μg/ml streptomycin, 2 mM L-glutamine, and 2 ng/ml IL-6 (for the HG-1 cell line only). The HCT116 cell line was grown under the same atmospheric conditions in McCoy's 5A medium supplemented with 10% FBS and penicillin/streptomycin as above, in addition to blasticidin as a selection marker at a final concentration of 5 μg/ml.
Cell proliferation experiments were carried out in 96-well tissue culture plates with seeding of 2000 cells/well (MCF-7) or 1000 cells/well (HL-60, HG-1) in 100 μl of the relevant medium. Cells were subsequently incubated under the conditions mentioned for 24 h prior to addition of compounds.
For the determination of compound EC50 values, 10 μl compounds at 11× concentrations in 5.5% DMSO were added to the wells at various concentrations yielding a final constant percentage of 0.5% DMSO at the desired 1× compound concentration. As a positive control, cells were treated with 5.5% DMSO. The cells were then incubated for a further 72 h prior to the measurement.
To determine the degree of inhibition of cell proliferation, cells were treated with ATPlite solution according to the manufacturer's instructions (PerkinElmer, ATPlite 1-step Luminescence ATP Detection Assay System) and luciferase readout measured on an Envision HTS multilabel plate reader (PerkinElmer) in luminescence mode according to established protocols. Raw data were imported into an ActivityBase database (IDBS, ID Business Solutions) and EC50 values calculated using the IDBS program ActivityBase XE. Table 2A and 2B show the IC50 values obtained in the above-outlined cell proliferation assay for exemplary compounds of the invention.
(ATP-based viability assays read luminescence as a measure of living cells.)

For the molecule `Cc1ccc(S(=O)(=O)Nc2cc(-c3ccc(C)cn3)ccc2C)cc1` [Example 32, 4-Methyl-N-[2-methyl-5-(5-methyl-pyridin-2-yl)-phenyl]-benzenesulfonamide], the EC50 fell in the range of 1000 to 10000 nM. With `COc1ccc(S(=O)(=O)Nc2cc(-n3cccc3C)ccc2C)cc1` [Example 50, 4-Methoxy-N-[2-methyl-5-(2-methyl-pyrrol-1-yl)-phenyl]-benzenesulfonamide] the figure was < 500 nM; with `Cc1ccc(S(=O)(=O)Nc2cc(-c3ncccc3C(F)(F)F)ccc2C)cc1` [Example 27, 4-Methyl-N-[2-methyl-5-(3-trifluoromethyl-pyridin-2-yl)-phenyl]-benzenesulfonamide], 1000 to 10000 nM; with `Cc1ccc(S(=O)(=O)Nc2cc(-c3c(C)noc3C)ccc2C)cc1` [Example 48, N-[5-(3,5-Dimethyl-isoxazol-4-yl)-2-methyl-phenyl]-4-methyl-benzenesulfonamide], < 500 nM. With `Cc1ccc(S(=O)(=O)Nc2cc(-c3sc(C)nc3C)ccc2C)cc1` [Example 12, N-[5-(2,4-Dimethyl-thiazol-5-yl)-2-methyl-phenyl]-4-methyl-benzenesulfonamide], the half-maximal effective concentration (EC50) is < 500 nM. With `COc1ccc(S(=O)(=O)Nc2cc(-c3ccnc(C#N)c3)ccc2C)cc1` [Example 75, N-[5-(2-Cyano-pyridin-4-yl)-2-methyl-phenyl]-4-methoxy-benzenesulfonamide] the figure was 500 to 1000 nM.

Regarding `Cc1ccc(-c2ccc(C#N)cc2)cc1NS(=O)(=O)c1ccc(N)c(F)c1` [Example 110, 4-amino-N-(4′-cyano-4-methylbiphenyl-3-yl)-3-fluorobenzenesulfonamide], the EC50 was < 500 nM. To `Cc1ccc(S(=O)(=O)Nc2cc(-c3cccc(C)n3)ccc2C)cc1` [Example 33, 4-Methyl-N-[2-methyl-5-(6-methyl-pyridin-2-yl)-phenyl]-benzenesulfonamide] belongs 500 to 1000 nM; to `Cc1ccc(-c2ccc(C#N)s2)cc1NS(=O)(=O)c1ccc(OC(F)(F)F)cc1` [Example 79, N-[5-(5-Cyano-thiophen-2-yl)-2-methyl-phenyl]-4-trifluoromethoxy-benzenesulfonamide], 1000 to 10000 nM; to `Cc1ccc(S(=O)(=O)Nc2cc(-c3cc(C)cc(C)n3)ccc2C)cc1` [Example 67, N-[5-(4,6-Dimethyl-pyridin-2-yl)-2-methyl-phenyl]-4-methyl-benzenesulfonamide], 1000 to 10000 nM. As for `COc1ccc(S(=O)(=O)Nc2cc(-c3ccsc3C)ccc2C)cc1` [Example 17, 4-Methoxy-N-[2-methyl-5-(2-methyl-thiophen-3-yl)-phenyl]-benzenesulfonamide], the EC50 was < 500 nM.

`COc1ccc(S(=O)(=O)Nc2cc(-n3ccc(C)n3)ccc2C)cc1` [Example 30, 4-Methoxy-N-[2-methyl-5-(3-methyl-pyrazol-1-yl)-phenyl]-benzenesulfonamide]: the EC50 was < 500 nM. With `COc1ccc(S(=O)(=O)Nc2cc(-c3cnco3)ccc2C)cc1` [Example 20, 4-Methoxy-N-(2-methyl-5-oxazol-5-yl-phenyl)-benzenesulfonamide] the figure was < 500 nM; with `COc1ccc(S(=O)(=O)Nc2cc(-n3cc(C)cc3C)ccc2C)cc1` [Example 40, N-[5-(2,4-Dimethyl-pyrrol-1-yl)-2-methyl-phenyl]-4-methoxy-benzenesulfonamide], 1000 to 10000 nM. To `C#Cc1ccc(-c2ccc(C)c(NS(=O)(=O)c3ccc(C)cc3)c2)cc1` [Example 84, N-(4′-Ethynyl-4-methyl-biphenyl-3-yl)-4-methyl-benzenesulfonamide] belongs 500 to 1000 nM; to `COc1ccc(-c2ccc(C)c(NS(=O)(=O)c3ccc(OC)cc3)c2)cc1` [Example 81, 4-Methoxy-N-(4′-methoxy-4-methyl-biphenyl-3-yl)-benzenesulfonamide], < 500 nM; to `Cc1ccc(S(=O)(=O)Nc2cc(-c3ncccc3C)ccc2C)cc1` [Example 28, 4-Methyl-N-[2-methyl-5-(3-methyl-pyridin-2-yl)-phenyl]-benzenesulfonamide], 1000 to 10000 nM. For `Cc1ccc(S(=O)(=O)Nc2cc(-c3ccc([N+](=O)[O-])o3)ccc2C)cc1` [Example 76, 4-Methyl-N-[2-methyl-5-(5-nitro-furan-2-yl)-phenyl]-benzenesulfonamide], the EC50 is < 500 nM.

`COc1ccc(-c2ccc(C)c(NS(=O)(=O)c3ccc(C)cc3)c2)cn1` [Example 18, N-[5-(6-Methoxy-pyridin-3-yl)-2-methyl-phenyl]-4-methyl-benzenesulfonamide] gave an EC50 of 1000 to 10000 nM. As for `Cc1ccc(S(=O)(=O)Nc2cc(-c3nnn[nH]3)ccc2C)cc1` [Example 1, 4-Methyl-N-[2-methyl-5-(1H-tetrazol-5-yl)-phenyl]-benzenesulfonamide], the half-maximal effective concentration (EC50) lay in the range of 1000 to 10000 nM.

As to `COc1ccc(S(=O)(=O)Nc2cc(-c3ccc(C#N)c(C#N)c3)ccc2C)cc1` [Example 65, N-(3′,4′-Dicyano-4-methyl-biphenyl-3-yl)-4-methoxy-benzenesulfonamide], the EC50 was < 500 nM. With `Cc1ccc(S(=O)(=O)Nc2cc(-c3ccc([N+](=O)[O-])c(C)n3)ccc2C)cc1` [Example 111, 4-methyl-N-(2-methyl-5-(6-methyl-5-nitropyridin-2-yl)phenyl)benzenesulfonamide], the EC50 is < 500 nM. With `Cc1ccc(-c2ccc(C#N)s2)cc1NS(=O)(=O)c1ccc(O)cc1` [Example 98, N-(5-(5-cyanothiophen-2-yl)-2-methylphenyl)-4-hydroxybenzenesulfonamide] the figure was 500 to 1000 nM.

In the case of `Cc1ccc(S(=O)(=O)Nc2cc(-c3ccc(N)cn3)ccc2C)cc1` [Example 106, N-(5-(5-aminopyridin-2-yl)-2-methylphenyl)-4-methylbenzenesulfonamide], the EC50 lay within 1000 to 10000 nM. To `Cc1ccc(-c2ccc(C#N)cc2)cc1NS(=O)(=O)c1ccc(N(C)C)cc1` [Example 115, N-(4′-cyano-4-methylbiphenyl-3-yl)-4-(dimethylamino)benzenesulfonamide] belongs < 500 nM; to `COc1ccc(S(=O)(=O)Nc2cc(-c3ccc(C#N)s3)ccc2C)cc1C` [Example 109, N-(5-(5-cyanothiophen-2-yl)-2-methylphenyl)-4-methoxy-3-methylbenzenesulfonamide], < 500 nM; to `Cc1ccc(-c2ccc(C#N)cc2)cc1NS(=O)(=O)c1ccc(Cl)cc1` [Example 97, 4-chloro-N-(4′-cyano-4-methylbiphenyl-3-yl)benzenesulfonamide], < 500 nM.

`Cc1ccc(S(=O)(=O)Nc2cc(-c3cccc(C(F)(F)F)n3)ccc2C)cc1` [Example 39, 4-Methyl-N-[2-methyl-5-(6-trifluoromethyl-pyridin-2-yl)-phenyl]-benzenesulfonamide] showed a half-maximal effective concentration (EC50) of 500 to 1000 nM. With `Cc1ccc(-c2csc(C#N)c2)cc1NS(=O)(=O)c1ccc([N+](=O)[O-])cc1` [Example 96, N-(5-(5-cyanothiophen-3-yl)-2-methylphenyl)-4-nitrobenzenesulfonamide] the figure was 1000 to 10000 nM; with `COc1ccc(S(=O)(=O)Nc2cc(-c3ccsc3C#N)ccc2C)cc1` [Example 62, N-[5-(2-Cyano-thiophen-3-yl)-2-methyl-phenyl]-4-methoxy-benzenesulfonamide], < 500 nM.

By EC50 is commonly meant the concentration needed to bring the measured effect to its halfway point. Higher therefore signals lower potency in that assay.
